How the values were obtained:
Format in all cases: cell-based
human cancer cell lines = experiment: Growth inhibition across the human cancer cell line panel (overall statement); settings: wide range of human cancer cell lines, in words
Protocol: The growth inhibitory activities of bis(propargylic) sulfone crown ethers 2.47 and 2.48 against B16 murine melanoma cells were determined calorimetrically with an MTT assay conducted by the Institute for Drug Development at the Cancer Research and Therapy Center in San Antonio, Tex.
(§1) The growth inhibitory activity of propargylic sulfone 3.2 against a wide range of human cancer cell lines was determined calorimetrically with sulforhodamine B assay conducted by the National Cancer Institute of the National Institutes of Health.
(§2) The in vitro cytotoxicity of compounds 2.47, 2.48 and 3.2 were investigated using the DTP Human Tumor Cell Line Screen. The concept, rationale and history of development of the DTP Human Tumor Cell Line Screen were described by Boyd (1993;1997)^8.4, 8.6 and Boyd and Paull (1995)^8.5. Further technical details of the NCI screening procedures were described (Monks, et. al.)^8.2 as were the origins and processing of the cell lines (Alley, et. al., Shoemaker, et. al., Stinson, et. al.). Briefly, cell suspensions that were diluted according to the particular cell type and the expected target cell density (5000-40,000 cells per well based on cell growth characteristics) were added by pipet (100 μL) into 96-well microtiter plates. Inoculates were allowed a preincubation period of 24 h at 37° C. for stabilization. Dilutions at twice the intended test concentration were added at time zero in 100-μL aliquots to the microtiter plate wells. Usually, test compounds were evaluated at five 10-fold dilutions. In routine testing, the highest well concentration is 10E-4 M, but for the standard agents the highest well concentration used depended on the agent. Incubations lasted for 48 h in 5% CO2 atmosphere and 100% humidity. The cells were assayed by using the sulforhodamine B assay (Rubinstein, et. al., Skehan, et. al.). A plate reader was used to read the optical densities, and a microcomputer processed the optical densities into the special concentration parameters.

DU-145 = experiment: DTP Human Tumor Cell Line Screen, sulforhodamine B assay; settings: Prostate Cancer, 48 h
Protocol: as §1, §2

SN12C = experiment: as above; settings: Renal Cancer, 48 h
Protocol: as §1, §2

A498 = experiment: as above; settings: Renal Cancer, 48 h
Protocol: as §1, §2

SNB-19 = experiment: as above; settings: CNS Cancer, 48 h
Protocol: as §1, §2

OVCAR-4 = experiment: as above; settings: Ovarian Cancer, 48 h
Protocol: as §1, §2

NCI-H522 = experiment: as above; settings: Non-Small Cell Lung Cancer, 48 h
Protocol: as §1, §2

RXF 393 = experiment: as above; settings: Renal Cancer, 48 h
Protocol: as §1, §2

EKVX = experiment: as above; settings: Non-Small Cell Lung Cancer, 48 h
Protocol: as §1, §2

SF-295 = experiment: as above; settings: CNS Cancer, 48 h
Protocol: as §1, §2

SK-MEL-28 = experiment: as above; settings: Melanoma, 48 h
Protocol: as §1, §2

TK-10 = experiment: as above; settings: Renal Cancer, 48 h
Protocol: as §1, §2

K-562 = experiment: as above; settings: 48 h
Protocol: as §1, §2

HOP-92 = experiment: as above; settings: Non-Small Cell Lung Cancer, 48 h
Protocol: as §1, §2

SF-268 = experiment: as above; settings: CNS Cancer, 48 h
Protocol: as §1, §2

NCI-H460 = experiment: as above; settings: Non-Small Cell Lung Cancer, 48 h
Protocol: as §1, §2

SR = experiment: as above; settings: Leukemia, 48 h
Protocol: as §1, §2

NCI-H322M = experiment: as above; settings: Non-Small Cell Lung Cancer, 48 h
Protocol: as §1, §2

UACC-62 = experiment: as above; settings: Melanoma, 48 h
Protocol: as §1, §2

IGROV1 = experiment: as above; settings: 48 h
Protocol: as §1, §2

COLO 205 = experiment: as above; settings: Colon Cancer, 48 h
Protocol: as §1, §2

MDA-N = experiment: as above; settings: Breast Cancer, 48 h
Protocol: as §1, §2

OVCAR-8 = experiment: as above; settings: Ovarian Cancer, 48 h
Protocol: as §1, §2

MDA-MB-435 = experiment: as above; settings: Breast Cancer, 48 h
Protocol: as §1, §2

MCF7/ADR-RES = experiment: as above; settings: Breast Cancer, 48 h
Protocol: as §1, §2

U251 = experiment: as above; settings: 48 h
Protocol: as §1, §2

CAKI-1 = experiment: as above; settings: Renal Cancer, 48 h
Protocol: as §1, §2

MALME-3M = experiment: as above; settings: Melanoma, 48 h
Protocol: as §1, §2

MCF7 = experiment: as above; settings: Breast Cancer, 48 h
Protocol: as §1, §2

MDA-MB-231/ATCC = experiment: as above; settings: Breast Cancer, 48 h
Protocol: as §1, §2

HOP-62 = experiment: as above; settings: Non-Small Cell Lung Cancer, 48 h
Protocol: as §1, §2

HCT-15 = experiment: as above; settings: Colon Cancer, 48 h
Protocol: as §1, §2

HS 578T = experiment: as above; settings: Breast Cancer, 48 h
Protocol: as §1, §2

SF-539 = experiment: as above; settings: CNS Cancer, 48 h
Protocol: as §1, §2

SK-MEL-5 = experiment: as above; settings: Melanoma, 48 h
Protocol: as §1, §2

SNB-75 = experiment: as above; settings: CNS Cancer, 48 h
Protocol: as §1, §2

PC-3 = experiment: as above; settings: Prostate Cancer, 48 h
Protocol: as §1, §2

HL-60 (TB) = experiment: as above; settings: Leukemia, 48 h
Protocol: as §1, §2

HT29 = experiment: as above; settings: 48 h
Protocol: as §1, §2

## O=S1(=O)CC#CCOCCOCCOCCOCCOCCOCC#CC1 [Compound 2.47]
Human cancer cell lines
  growth inhibitory properties against human cancer cell lines: display growth inhibitory properties
DU-145
  IC50: 32.8 µM
SN12C
  IC50: 13.2 µM
A498
  IC50: 16.9 µM
SNB-19
  IC50: 18.2 µM
OVCAR-4
  IC50: 19.8 µM
NCI-H522
  IC50: 2.86 µM
RXF 393
  IC50: 15.1 µM
EKVX
  IC50: 15.1 µM
SF-295
  IC50: 32 µM
SK-MEL-28
  IC50: 18.9 µM
TK-10
  IC50: 13.9 µM
K-562; Leukemia
  IC50: 11.2 µM
HOP-92
  IC50: 10.9 µM
SF-268
  IC50: 24.2 µM
NCI-H460
  IC50: 19.3 µM
SR
  IC50: 8.2 µM
NCI-H322M
  IC50: 17.5 µM
UACC-62
  IC50: 0.28 µM
IGROV1; Ovarian Cancer
  IC50: 16.3 µM
COLO 205
  IC50: 7.2 µM
MDA-N
  IC50: 14.2 µM
OVCAR-8
  IC50: 14.2 µM
MDA-MB-435
  IC50: 13.3 µM
MCF7/ADR-RES
  IC50: 25.7 µM
U251; CNS Cancer
  IC50: 16.9 µM
CAKI-1
  IC50: 12.2 µM
MALME-3M
  IC50: 2.7 µM
MCF7
  IC50: 10.1 µM
MDA-MB-231/ATCC
  IC50: 20 µM
HOP-62
  IC50: 21.7 µM
HCT-15
  IC50: 15.5 µM
HS 578T
  IC50: 40.7 µM
SF-539
  IC50: 11.1 µM
SK-MEL-5
  IC50: 16.8 µM
SNB-75
  IC50: 19.9 µM
PC-3
  IC50: 18.6 µM
HL-60 (TB)
  IC50: 13.5 µM
HT29; Colon Cancer
  IC50: 13.8 µM

## O=S1(=O)CC#CCOCCOCCOCCOCCOCCOCCOCC#CC1 [Compound 2.48]
Human cancer cell lines
  growth inhibitory properties against human cancer cell lines: display growth inhibitory properties
DU-145
  IC50: > 100 µM
SN12C
  IC50: 18.8 µM
A498
  IC50: 54.7 µM
SNB-19
  IC50: 27.9 µM
OVCAR-4
  IC50: 27.3 µM
NCI-H522
  IC50: 10.6 µM
RXF 393
  IC50: 27 µM
EKVX
  IC50: 20.9 µM
SF-295
  IC50: 81.2 µM
SK-MEL-28
  IC50: 17.9 µM
TK-10
  IC50: 23 µM
K-562; Leukemia
  IC50: 23.9 µM
HOP-92
  IC50: 19.6 µM
SF-268
  IC50: 30.5 µM
NCI-H460
  IC50: 38 µM
SR
  IC50: 18.9 µM
NCI-H322M
  IC50: 32.3 µM
UACC-62
  IC50: 17.1 µM
IGROV1; Ovarian Cancer
  IC50: 44.6 µM
COLO 205
  IC50: 14.7 µM
MDA-N
  IC50: 18.9 µM
OVCAR-8
  IC50: 33.3 µM
MDA-MB-435
  IC50: 20.4 µM
MCF7/ADR-RES
  IC50: > 100 µM
U251; CNS Cancer
  IC50: 18.3 µM
CAKI-1
  IC50: 21.2 µM
MALME-3M
  IC50: 14.6 µM
MCF7
  IC50: 22 µM
MDA-MB-231/ATCC
  IC50: 23.5 µM
HOP-62
  IC50: 21 µM
HCT-15
  IC50: 32.7 µM
HS 578T
  IC50: 52.8 µM
SF-539
  IC50: 26.2 µM
SK-MEL-5
  IC50: 18.1 µM
SNB-75
  IC50: 32.6 µM
PC-3
  IC50: 43.4 µM
HL-60 (TB)
  IC50: 20.9 µM
HT29; Colon Cancer
  IC50: 18.7 µM

## O=C(OCC1COCCOCCOCCOCCO1)c1ccc(CS(=O)(=O)CC#CCO)cc1 (stereo not drawn) [Compound 3.2]
Human cancer cell lines
  growth inhibitory properties against human cancer cell lines: modest growth inhibitory properties
DU-145; Homo sapiens
  IC50: > 100 µM
SN12C; Homo sapiens
  IC50: 30.3 µM
A498; Homo sapiens
  IC50: > 100 µM
SNB-19; Homo sapiens
  IC50: > 100 µM
OVCAR-4; Homo sapiens
  IC50: > 100 µM
NCI-H522; Homo sapiens
  IC50: 18.8 µM
RXF 393; Homo sapiens
  IC50: > 100 µM
EKVX; Homo sapiens
  IC50: > 100 µM
SF-295; Homo sapiens
  IC50: > 100 µM
SK-MEL-28; Homo sapiens
  IC50: > 100 µM
TK-10; Homo sapiens
  IC50: > 100 µM
K-562; Homo sapiens, K562, Leukemia
  IC50: 37 µM
HOP-92; Homo sapiens
  IC50: 41.6 µM
SF-268; Homo sapiens
  IC50: > 100 µM
NCI-H460; Homo sapiens
  IC50: > 100 µM
SR; Homo sapiens
  IC50: > 100 µM
NCI-H322M; Homo sapiens
  IC50: 34.3 µM
UACC-62; Homo sapiens
  IC50: 82.4 µM
IGROV1; Homo sapiens, IGROV-1, Ovarian Cancer
  IC50: > 100 µM
COLO 205; Homo sapiens
  IC50: > 100 µM
MDA-N; Homo sapiens
  IC50: 37.4 µM
OVCAR-8; Homo sapiens
  IC50: > 100 µM
MDA-MB-435; Homo sapiens
  IC50: > 100 µM
MCF7/ADR-RES; Homo sapiens
  IC50: > 100 µM
U251; Homo sapiens, U-251, CNS Cancer
  IC50: 69 µM
CAKI-1; Homo sapiens
  IC50: > 100 µM
MALME-3M; Homo sapiens
  IC50: > 100 µM
MCF7; Homo sapiens
  IC50: > 100 µM
MDA-MB-231/ATCC; Homo sapiens
  IC50: > 100 µM
HOP-62; Homo sapiens
  IC50: > 100 µM
HCT-15; Homo sapiens
  IC50: > 100 µM
HS 578T; Homo sapiens
  IC50: 80 µM
SF-539; Homo sapiens
  IC50: 46.8 µM
SK-MEL-5; Homo sapiens
  IC50: > 100 µM
SNB-75; Homo sapiens
  IC50: > 100 µM
PC-3; Homo sapiens
  IC50: > 100 µM
HL-60 (TB); Homo sapiens
  IC50: > 100 µM
HT29; Homo sapiens, HT-29, Colon Cancer
  IC50: > 100 µM
